From patent publication US20260217661A1, “TREATMENTS FOR PAIN” (Sevenless Therapeutics Limited, priority 2023, published 2026) come the findings set out here.

The term IC50 denotes the concentration at which inhibition is half-maximal.

The structures appear in SMILES notation.

In the assay the target is T1, KRAS WT/SOS1 (Homo sapiens, UniProt Q07889).
T1 sequence (Q07889 1-1333): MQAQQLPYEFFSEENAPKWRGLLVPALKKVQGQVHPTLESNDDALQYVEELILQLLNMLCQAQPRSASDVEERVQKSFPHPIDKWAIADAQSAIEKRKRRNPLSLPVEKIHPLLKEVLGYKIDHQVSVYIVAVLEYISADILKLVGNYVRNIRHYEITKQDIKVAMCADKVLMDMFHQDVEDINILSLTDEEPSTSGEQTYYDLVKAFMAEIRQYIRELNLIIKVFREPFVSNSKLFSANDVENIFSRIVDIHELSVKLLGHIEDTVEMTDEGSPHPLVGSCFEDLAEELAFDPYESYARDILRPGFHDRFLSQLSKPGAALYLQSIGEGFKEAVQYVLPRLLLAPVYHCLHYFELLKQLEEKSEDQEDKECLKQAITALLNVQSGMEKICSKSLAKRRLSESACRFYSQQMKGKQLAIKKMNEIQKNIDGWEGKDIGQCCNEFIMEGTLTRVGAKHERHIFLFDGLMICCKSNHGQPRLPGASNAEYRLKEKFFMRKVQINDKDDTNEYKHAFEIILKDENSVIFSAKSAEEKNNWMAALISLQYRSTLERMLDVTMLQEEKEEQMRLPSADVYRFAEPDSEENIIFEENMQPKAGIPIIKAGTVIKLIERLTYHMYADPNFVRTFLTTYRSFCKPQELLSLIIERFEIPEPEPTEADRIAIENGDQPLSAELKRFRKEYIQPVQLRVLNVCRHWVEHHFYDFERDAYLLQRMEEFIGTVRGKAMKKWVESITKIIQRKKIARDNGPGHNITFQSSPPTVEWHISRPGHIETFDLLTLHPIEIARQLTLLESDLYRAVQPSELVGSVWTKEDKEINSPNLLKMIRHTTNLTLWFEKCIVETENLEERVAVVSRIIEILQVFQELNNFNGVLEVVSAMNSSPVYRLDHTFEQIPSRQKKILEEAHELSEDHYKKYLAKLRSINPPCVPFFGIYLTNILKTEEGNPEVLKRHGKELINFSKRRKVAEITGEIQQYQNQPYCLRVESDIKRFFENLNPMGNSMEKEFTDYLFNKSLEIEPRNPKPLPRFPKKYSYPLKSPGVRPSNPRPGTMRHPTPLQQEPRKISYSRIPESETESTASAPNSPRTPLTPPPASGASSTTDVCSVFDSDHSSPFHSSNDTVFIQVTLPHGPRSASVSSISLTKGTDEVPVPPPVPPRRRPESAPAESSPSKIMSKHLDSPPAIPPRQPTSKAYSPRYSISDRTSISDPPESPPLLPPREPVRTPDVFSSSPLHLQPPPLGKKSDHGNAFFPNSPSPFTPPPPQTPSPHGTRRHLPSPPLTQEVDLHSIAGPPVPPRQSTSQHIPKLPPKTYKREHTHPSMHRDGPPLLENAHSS
Kind of assay: HTRF KRAS WT/SOS1 PPI kit (Cisbio) screen for SOS1 inhibitors. Format: binding. As to conditions: HTRF KRAS WT/SOS1 PPI assay, 10-point dilution series starting at 10 μM, 60 minutes incubation. Here is the method: Compounds were screened using an HTRF KRAS WT/SOS1 PPI kit provided by Cis bio, according to the manufacturer's instructions, with the modifications described below. All reagents were allowed to equilibrate to room temperature and diluted to working stock in Binding Domain Detection buffer (BDD buffer). Stock solutions were prepared by adding 1 part Tag1-KRAS WT/GTP to 1 part Tag2-SOS1 and 1 part BDD. Separately, 1 part Anti-Tag1 XL665 antibody premix was added to Anti-Tag2 Tb cryptate antibody premix. BI-3406 (Selleck Chemicals) was used as a standard, solubilised to 10 mM in DMSO. Test compounds were also solubilised to 10 mM in DMSO. […] Per well, 6 uL of Tag1-KRAS WT/GTP premix, 4 ul Tag2-SOS1 premix and 10 μl of Anti-Tag1 XL665 and Anti-Tag2 Tb cryptate antibodies were then added using a E1-ClipTip™ Electronic Adjustable Multichannel Equalizer Pipette. After the final addition, the plate was covered and placed in the benchtop incubator set at 22° C. The reaction was incubated for 60 minutes at room temperature, prior to reading using a Pherastar FSX plate reader.
Background: TR-FRET usually uses a lanthanide donor and a delayed reading to cut background.

With `COc1cc2nncc(N[C@H](C)c3cccc(C(F)F)c3F)c2cc1N1CC2CC(C1)O2` [Example-8, 6-(6-oxa-3-azabicyclo [3.1.1]heptan-3-yl)-N—((R)-1-(3-(difluoromethyl)-2-fluorophenyl)ethyl)-7-methoxycinnolin-4-amine], the IC50 was under 100 nM.
